Patent publication US10597388B2, “Pyridazinone herbicides” (FMC CORPORATION, priority 2014, dated 2020)

Assays:
Assay in all cases: Test C greenhouse herbicide test, pre- and postemergence
Format in all cases: in vivo
[1] = system: crabgrass, large (large crabgrass, Digitaria sanguinalis)
How it was run: (§1)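 Seeds sown in loam–sand blend treated preemergence; plants in peat-based medium sprayed postemergence at 2–18 cm (1- to 4-leaf stage); chemicals in non-phytotoxic solvent with surfactant. Greenhouse 13–15 d, then visual rating versus controls on 0–100 scale (0 no effect, 100 complete control).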

[2] = system: velvetleaf (Abutilon theophrasti)
How it was run: as §1

[3] = system: wheat (winter wheat, Triticum aestivum)
How it was run: as §1

corn (Zea mays) = system: corn (Zea mays)
How it was run: as §1

[4] = system: foxtail, giant (giant foxtail, Setaria faberii)
How it was run: as §1

[5] = system: nutsedge, yellow (yellow nutsedge, Cyperus esculentus)
How it was run: as §1

[6] = system: ryegrass, Italian (Italian ryegrass, Lolium multiflorum)
How it was run: as §1

soybean (Glycine max) = system: soybean (Glycine max)
How it was run: as §1

[7] = system: lambsquarters (Chenopodium album)
How it was run: as §1

[8] = system: galium (catchweed bedstraw, Galium aparine)
How it was run: as §1

[9] = system: ragweed (common ragweed, Ambrosia elatior)
How it was run: as §1

[10] = system: barnyardgrass (Echinochloa crus-galli)
How it was run: as §1

[11] = system: pigweed (Amaranthus retroflexus)
How it was run: as §1

[12] = system: blackgrass (Alopecurus myosuroides)
How it was run: as §1

[13] = system: oilseed rape (Brassica napus)
How it was run: as §1

[14] = Postemergence, 31 g ai/ha, 0 to 100 scale (0 no effect, 100 complete control)
[15] = Postemergence, 125 g ai/ha, scale 0 to 100, 0 is no effect, 100 is complete control
[16] = Postemergence, 250 g ai/ha, scale 0 to 100, 0 no effect, 100 complete control, 13 to 15 d
[17] = Preemergence, 31 g ai/ha, scale 0 to 100, 0 is no effect, 100 is complete control
[18] = Preemergence, 62 g ai/ha, scale 0 to 100, 0 is no effect, 100 is complete control
[19] = Preemergence, 125 g ai/ha, scale 0 to 100, 0 is no effect, 100 is complete control
[20] = Preemergence, 250 g ai/ha, scale 0 to 100, 0 no effect, 100 complete control
[21] = postemergence, 62 g ai/ha, scale 0 to 100, 0 no effect, 100 complete control

Cc1ccc2ccccc2c1-c1c(OC(=O)OC(C)C)c(C)nn(C)c1=O [Compound 72]
Crabgrass, Large plant response rating [1, 14]: 10 | Plant response rating, Crabgrass, Large [1, 15]: 35 | Plant response rating, Crabgrass, Large [1, 16]: 60 | Plant response rating, Crabgrass, Large [1, 17]: 60 | Plant response rating, Crabgrass, Large [1, 18]: 80 | Plant response rating, Crabgrass, Large [1, 19]: 65 | Crabgrass, Large plant response rating [1, 20]: 85 | Crabgrass, Large plant response rating [1, 21]: 25 | Velvetleaf plant response rating [2, 14]: 45 | Plant response rating, Velvetleaf [2, 15]: 85 | Plant response rating, Velvetleaf [2, 16]: 95 | Plant response rating, Velvetleaf [2, 17]: 30 | Plant response rating, Velvetleaf [2, 18]: 45 | Plant response rating, Velvetleaf [2, 19]: 80 | Velvetleaf plant response rating [2, 20]: 85 | Velvetleaf plant response rating [2, 21]: 85 | Wheat plant response rating [3, 14]: 30 | Plant response rating, Wheat [3, 15]: 5 | Plant response rating, Wheat [3, 16]: 35 | Plant response rating, Wheat [3, 17]: 0 | Plant response rating, Wheat [3, 18]: 0 | Plant response rating, Wheat [3, 19]: 30 | Wheat plant response rating [3, 20]: 40 | Wheat plant response rating [3, 21]: 30 | Corn plant response rating (corn (Zea mays); [14]): 5 | Plant response rating, Corn (corn (Zea mays); [15]): 20 | Plant response rating, Corn (corn (Zea mays); [16]): 25 | Plant response rating, Corn (corn (Zea mays); [17]): 0 | Plant response rating, Corn (corn (Zea mays); [18]): 0 | Plant response rating, Corn (corn (Zea mays); [19]): 0 | Corn plant response rating (corn (Zea mays); [20]): 20 | Corn plant response rating (corn (Zea mays); [21]): 10 | Foxtail, Giant plant response rating [4, 14]: 50 | Plant response rating, Foxtail, Giant [4, 15]: 75 | Plant response rating, Foxtail, Giant [4, 16]: 85 | Plant response rating, Foxtail, Giant [4, 17]: 60 | Plant response rating, Foxtail, Giant [4, 18]: 70 | Plant response rating, Foxtail, Giant [4, 19]: 85 | Foxtail, Giant plant response rating [4, 20]: 85 | Foxtail, Giant plant response rating [4, 21]: 70 | Nutsedge, Yellow plant response rating [5, 14]: 30 | Plant response rating, Nutsedge, Yellow [5, 15]: 70 | Plant response rating, Nutsedge, Yellow [5, 16]: 85 | Plant response rating, Nutsedge, Yellow [5, 17]: 10 | Plant response rating, Nutsedge, Yellow [5, 18]: 10 | Plant response rating, Nutsedge, Yellow [5, 19]: 60 | Nutsedge, Yellow plant response rating [5, 20]: 70 | Nutsedge, Yellow plant response rating [5, 21]: 60 | Ryegrass, Italian plant response rating [6, 14]: 85 | Plant response rating, Ryegrass, Italian [6, 15]: 90 | Plant response rating, Ryegrass, Italian [6, 16]: 90 | Plant response rating, Ryegrass, Italian [6, 17]: 90 | Plant response rating, Ryegrass, Italian [6, 18]: 90 | Plant response rating, Ryegrass, Italian [6, 19]: 90 | Ryegrass, Italian plant response rating [6, 20]: 90 | Ryegrass, Italian plant response rating [6, 21]: 90 | Soybean plant response rating (soybean (Glycine max); [14]): 10 | Plant response rating, Soybean (soybean (Glycine max); [15]): 15 | Plant response rating, Soybean (soybean (Glycine max); [16]): 30 | Plant response rating, Soybean (soybean (Glycine max); [17]): 80 | Plant response rating, Soybean (soybean (Glycine max); [18]): 0 | Plant response rating, Soybean (soybean (Glycine max); [19]): 0 | Soybean plant response rating (soybean (Glycine max); [20]): 0 | Soybean plant response rating (soybean (Glycine max); [21]): 15 | Lambsquarters plant response rating [7, 14]: 85 | Plant response rating, Lambsquarters [7, 15]: 90 | Plant response rating, Lambsquarters [7, 16]: 95 | Plant response rating, Lambsquarters [7, 17]: 60 | Plant response rating, Lambsquarters [7, 18]: 65 | Plant response rating, Lambsquarters [7, 19]: 85 | Lambsquarters plant response rating [7, 20]: 90 | Lambsquarters plant response rating [7, 21]: 85 | Galium plant response rating [8, 14]: 80 | Plant response rating, Galium [8, 15]: 95 | Plant response rating, Galium [8, 16]: 95 | Plant response rating, Galium [8, 17]: 90 | Plant response rating, Galium [8, 18]: 90 | Plant response rating, Galium [8, 19]: 95 | Galium plant response rating [8, 20]: 95 | Galium plant response rating [8, 21]: 95 | Ragweed plant response rating [9, 14]: 80 | Plant response rating, Ragweed [9, 15]: 95 | Plant response rating, Ragweed [9, 16]: 90 | Plant response rating, Ragweed [9, 17]: 85 | Plant response rating, Ragweed [9, 18]: 90 | Plant response rating, Ragweed [9, 19]: 100 | Ragweed plant response rating [9, 20]: 95 | Ragweed plant response rating [9, 21]: 90 | Barnyardgrass plant response rating [10, 14]: 35 | Plant response rating, Barnyardgrass [10, 15]: 50 | Plant response rating, Barnyardgrass [10, 16]: 65 | Plant response rating, Barnyardgrass [10, 17]: 10 | Plant response rating, Barnyardgrass [10, 18]: 20 | Plant response rating, Barnyardgrass [10, 19]: 55 | Barnyardgrass plant response rating [10, 20]: 80 | Barnyardgrass plant response rating [10, 21]: 40 | Pigweed plant response rating [11, 14]: 85 | Plant response rating, Pigweed [11, 15]: 95 | Plant response rating, Pigweed [11, 16]: 98 | Plant response rating, Pigweed [11, 17]: 90 | Plant response rating, Pigweed [11, 18]: 98 | Plant response rating, Pigweed [11, 19]: 98 | Pigweed plant response rating [11, 20]: 100 | Pigweed plant response rating [11, 21]: 90 | Blackgrass plant response rating [12, 14]: 60 | Plant response rating, Blackgrass [12, 15]: 80 | Plant response rating, Blackgrass [12, 16]: 90 | Plant response rating, Blackgrass [12, 17]: 40 | Plant response rating, Blackgrass [12, 18]: 50 | Plant response rating, Blackgrass [12, 19]: 70 | Blackgrass plant response rating [12, 20]: 90 | Blackgrass plant response rating [12, 21]: 70 | Oilseed Rape plant response rating [13, 14]: 40 | Plant response rating, Oilseed Rape [13, 15]: 20 | Plant response rating, Oilseed Rape [13, 16]: 85 | Plant response rating, Oilseed Rape [13, 17]: 30 | Plant response rating, Oilseed Rape [13, 18]: 35 | Plant response rating, Oilseed Rape [13, 19]: 80 | Oilseed Rape plant response rating [13, 20]: 80 | Oilseed Rape plant response rating [13, 21]: 35
